Test results as given in ChEMBL document CHEMBL1149823, “Identification of genotype-correlated sensitivity to selective kinase inhibitors by using high-throughput tumor cell line profiling” (Proc Natl Acad Sci U S A, 2007).
pEC50, pIC50: −log10 of the molar value.

Tests used:
Ephrin type-A receptor 3 = Ephrin type-A receptor 3 (Homo sapiens, UniProt P29320); test: Inhibition of EphA3 by cellular assay
[1] = molecular target: Proto-oncogene tyrosine-protein kinase receptor Ret (Homo sapiens, UniProt P07949)
Description: Inhibition of Ret by cellular assay

Angiopoietin-1 receptor = Angiopoietin-1 receptor (Homo sapiens, UniProt Q02763)
Description: Inhibition of Tie2 by cellular assay

[2] = molecular target: Fibroblast growth factor receptor 3 (Homo sapiens, UniProt P22607)
[3] = molecular target: Platelet-derived growth factor receptor alpha (Homo sapiens, UniProt P16234)
Description: Inhibition of PDGFRalpha by cellular assay

[4] = molecular target: Macrophage-stimulating protein receptor (Homo sapiens, UniProt Q04912)
Ephrin type-B receptor 4 = Ephrin type-B receptor 4 (Homo sapiens, UniProt P54760); test: Inhibition of EphB4 by cellular assay
[5] = molecular target: Fibroblast growth factor receptor 1 (Homo sapiens, UniProt P11362)
Description: Inhibition of FGFR1 by cellular assay

[6] = molecular target: High affinity nerve growth factor receptor (Homo sapiens, UniProt P04629)
[7] = molecular target: Mast/stem cell growth factor receptor Kit (Homo sapiens, UniProt P10721)
Description: Inhibition of c-Kit by cellular assay

[8] = molecular target: Tyrosine-protein kinase Lck (Homo sapiens, UniProt P06239)
Description: Inhibition of Lck by cellular assay

[9] = molecular target: Hepatocyte growth factor receptor (Homo sapiens, UniProt P08581); test: Inhibition of Met by cellular assay
[10] = molecular target: Non-receptor tyrosine-protein kinase TYK2 (Homo sapiens, UniProt P29597); test: Inhibition of Tyk2 by cellular assay
Insulin receptor = Insulin receptor (Homo sapiens, UniProt P06213)
Description: Inhibition of InsR by cellular assay

[11] = molecular target: Proto-oncogene tyrosine-protein kinase Src (Homo sapiens, UniProt P12931); test: Inhibition of Src by cellular assay; assay type: functional
[12] = molecular target: Vascular endothelial growth factor receptor 1 (Homo sapiens, UniProt P17948)
Description: Inhibition of Flt1 by cellular assay

[13] = molecular target: T1, Vascular endothelial growth factor receptor 2 (Homo sapiens, UniProt P35968)
Description: Inhibition of KDR by cellular assay

[14] = molecular target: Receptor-type tyrosine-protein kinase FLT3 (Homo sapiens, UniProt P36888)
Description: Inhibition of FLT3 by cellular assay

[15] = molecular target: Tyrosine-protein kinase ZAP-70 (Homo sapiens, UniProt P43403); test: Inhibition of ZAP70 by cellular assay
[16] = molecular target: ALK tyrosine kinase receptor (Homo sapiens, UniProt Q9UM73)
Description: Inhibition of ALK by cellular assay

[17] = molecular target: Platelet-derived growth factor receptor beta (Homo sapiens, UniProt P09619)
Description: Inhibition of PDGFRbeta by cellular assay

[18] = Cytotoxicity against human G-292 Clone A141B1 cells assessed as fraction of viable cells after 72 hrs relative to control; assay type: functional
IMR-90 = test: Cytotoxicity against human IMR90 cells assessed as fraction of viable cells after 72 hrs relative to control; assay type: functional
SNU-5 = test: Cytotoxicity against human SNU5 cells assessed as fraction of viable cells after 72 hrs relative to control; assay type: functional
[19] = Cytotoxicity against human Hs 707(A).T cells assessed as fraction of viable cells after 72 hrs relative to control; assay type: functional
SNU1 = test: Cytotoxicity against human SNU1 cells assessed as fraction of viable cells after 72 hrs relative to control; assay type: functional
MG-63 = test: Cytotoxicity against human MG63 cells assessed as fraction of viable cells after 72 hrs relative to control; assay type: functional
[20] = Inhibition of Mek
[21] = molecular target: T1, Vascular endothelial growth factor receptor 2; remark: listed apart in the source
Description: Inhibition of VEGFR2 by cellular assay

[22] = Inhibition of PDGF

T1 sequence (P35968 whole entry): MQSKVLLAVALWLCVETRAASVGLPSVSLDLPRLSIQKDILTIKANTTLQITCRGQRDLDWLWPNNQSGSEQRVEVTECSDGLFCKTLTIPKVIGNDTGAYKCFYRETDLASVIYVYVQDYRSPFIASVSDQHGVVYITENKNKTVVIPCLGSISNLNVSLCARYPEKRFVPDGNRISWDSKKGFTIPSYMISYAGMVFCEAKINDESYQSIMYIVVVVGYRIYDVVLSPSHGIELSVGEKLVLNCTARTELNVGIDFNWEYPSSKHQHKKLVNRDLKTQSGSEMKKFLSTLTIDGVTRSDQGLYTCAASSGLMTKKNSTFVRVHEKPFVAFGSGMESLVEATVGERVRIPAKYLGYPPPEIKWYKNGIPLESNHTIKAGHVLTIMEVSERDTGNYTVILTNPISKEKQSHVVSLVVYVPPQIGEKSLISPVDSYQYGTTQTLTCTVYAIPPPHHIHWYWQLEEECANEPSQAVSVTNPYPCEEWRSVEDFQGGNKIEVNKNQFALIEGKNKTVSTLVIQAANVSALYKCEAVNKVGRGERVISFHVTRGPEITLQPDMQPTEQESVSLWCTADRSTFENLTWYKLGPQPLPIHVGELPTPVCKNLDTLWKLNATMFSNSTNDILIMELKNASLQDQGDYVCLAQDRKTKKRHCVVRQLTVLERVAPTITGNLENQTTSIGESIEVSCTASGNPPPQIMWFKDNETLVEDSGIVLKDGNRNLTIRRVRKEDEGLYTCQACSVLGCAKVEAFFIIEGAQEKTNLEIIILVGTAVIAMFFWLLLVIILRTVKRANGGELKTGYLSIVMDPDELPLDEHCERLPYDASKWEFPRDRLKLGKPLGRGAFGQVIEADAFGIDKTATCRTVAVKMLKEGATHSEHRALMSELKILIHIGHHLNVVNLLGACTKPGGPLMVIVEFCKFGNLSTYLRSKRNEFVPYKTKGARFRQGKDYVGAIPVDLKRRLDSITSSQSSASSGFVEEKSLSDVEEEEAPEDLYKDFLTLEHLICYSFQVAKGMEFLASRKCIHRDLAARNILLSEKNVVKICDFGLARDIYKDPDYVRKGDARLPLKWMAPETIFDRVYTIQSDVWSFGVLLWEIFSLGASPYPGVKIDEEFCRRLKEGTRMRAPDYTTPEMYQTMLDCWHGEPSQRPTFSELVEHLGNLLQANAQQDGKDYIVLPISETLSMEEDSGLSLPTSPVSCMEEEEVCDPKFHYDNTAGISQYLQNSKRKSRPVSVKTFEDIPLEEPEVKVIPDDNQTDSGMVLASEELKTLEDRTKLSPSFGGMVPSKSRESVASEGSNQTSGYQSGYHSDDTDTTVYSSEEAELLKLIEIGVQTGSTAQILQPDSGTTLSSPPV
Fibroblast growth factor receptor 3, sequence (P22607 whole entry): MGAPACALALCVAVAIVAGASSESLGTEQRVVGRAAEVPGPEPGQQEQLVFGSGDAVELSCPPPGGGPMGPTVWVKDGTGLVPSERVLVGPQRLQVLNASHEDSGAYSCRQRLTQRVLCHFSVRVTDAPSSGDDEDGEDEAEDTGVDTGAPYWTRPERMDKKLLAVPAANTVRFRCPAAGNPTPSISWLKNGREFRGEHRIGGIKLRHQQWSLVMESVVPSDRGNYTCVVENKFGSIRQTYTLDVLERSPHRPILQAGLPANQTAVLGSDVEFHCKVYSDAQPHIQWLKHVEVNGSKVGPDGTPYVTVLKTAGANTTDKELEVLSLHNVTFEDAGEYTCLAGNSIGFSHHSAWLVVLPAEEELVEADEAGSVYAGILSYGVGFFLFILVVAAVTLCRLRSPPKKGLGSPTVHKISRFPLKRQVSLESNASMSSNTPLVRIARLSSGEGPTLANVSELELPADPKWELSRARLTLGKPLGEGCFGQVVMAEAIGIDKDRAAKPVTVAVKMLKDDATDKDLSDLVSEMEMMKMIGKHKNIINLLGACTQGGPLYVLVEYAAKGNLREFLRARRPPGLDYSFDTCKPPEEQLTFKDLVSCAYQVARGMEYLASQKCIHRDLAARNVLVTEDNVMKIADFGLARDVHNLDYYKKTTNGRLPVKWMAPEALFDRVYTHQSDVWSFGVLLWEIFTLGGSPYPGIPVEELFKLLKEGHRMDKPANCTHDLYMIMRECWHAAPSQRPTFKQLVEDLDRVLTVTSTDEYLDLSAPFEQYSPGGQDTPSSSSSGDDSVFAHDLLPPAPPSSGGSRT
Angiopoietin-1 receptor, sequence (Q02763 whole entry): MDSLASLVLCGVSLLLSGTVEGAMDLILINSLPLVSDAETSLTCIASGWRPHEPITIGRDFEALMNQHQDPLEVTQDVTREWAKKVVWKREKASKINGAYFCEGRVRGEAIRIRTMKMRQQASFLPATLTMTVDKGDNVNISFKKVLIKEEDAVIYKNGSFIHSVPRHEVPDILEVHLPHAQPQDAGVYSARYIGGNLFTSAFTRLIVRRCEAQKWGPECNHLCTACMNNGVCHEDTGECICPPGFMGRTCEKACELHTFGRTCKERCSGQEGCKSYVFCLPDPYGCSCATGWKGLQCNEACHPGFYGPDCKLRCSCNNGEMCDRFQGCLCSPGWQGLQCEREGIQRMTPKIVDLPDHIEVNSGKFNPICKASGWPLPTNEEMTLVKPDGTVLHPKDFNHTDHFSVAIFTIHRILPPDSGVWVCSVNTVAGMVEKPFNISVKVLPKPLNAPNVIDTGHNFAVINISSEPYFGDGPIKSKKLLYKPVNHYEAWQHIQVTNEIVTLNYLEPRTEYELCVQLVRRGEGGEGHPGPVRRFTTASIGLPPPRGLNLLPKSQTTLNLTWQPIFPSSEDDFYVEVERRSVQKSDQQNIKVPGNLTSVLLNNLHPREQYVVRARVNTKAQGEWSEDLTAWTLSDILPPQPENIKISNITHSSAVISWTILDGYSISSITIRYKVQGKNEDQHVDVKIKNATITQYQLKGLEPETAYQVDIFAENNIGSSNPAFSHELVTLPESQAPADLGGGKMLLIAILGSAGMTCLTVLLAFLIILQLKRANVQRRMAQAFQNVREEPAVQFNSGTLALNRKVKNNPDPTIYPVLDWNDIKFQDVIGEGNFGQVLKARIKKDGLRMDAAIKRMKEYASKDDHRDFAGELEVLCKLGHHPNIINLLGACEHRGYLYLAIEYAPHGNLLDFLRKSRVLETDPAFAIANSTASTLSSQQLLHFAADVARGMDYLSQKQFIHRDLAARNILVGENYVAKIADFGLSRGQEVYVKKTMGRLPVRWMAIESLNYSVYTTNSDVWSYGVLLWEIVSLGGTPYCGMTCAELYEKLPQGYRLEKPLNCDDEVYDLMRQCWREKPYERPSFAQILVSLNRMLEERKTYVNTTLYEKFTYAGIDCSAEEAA
Tyrosine-protein kinase Lck, sequence (P06239 whole entry): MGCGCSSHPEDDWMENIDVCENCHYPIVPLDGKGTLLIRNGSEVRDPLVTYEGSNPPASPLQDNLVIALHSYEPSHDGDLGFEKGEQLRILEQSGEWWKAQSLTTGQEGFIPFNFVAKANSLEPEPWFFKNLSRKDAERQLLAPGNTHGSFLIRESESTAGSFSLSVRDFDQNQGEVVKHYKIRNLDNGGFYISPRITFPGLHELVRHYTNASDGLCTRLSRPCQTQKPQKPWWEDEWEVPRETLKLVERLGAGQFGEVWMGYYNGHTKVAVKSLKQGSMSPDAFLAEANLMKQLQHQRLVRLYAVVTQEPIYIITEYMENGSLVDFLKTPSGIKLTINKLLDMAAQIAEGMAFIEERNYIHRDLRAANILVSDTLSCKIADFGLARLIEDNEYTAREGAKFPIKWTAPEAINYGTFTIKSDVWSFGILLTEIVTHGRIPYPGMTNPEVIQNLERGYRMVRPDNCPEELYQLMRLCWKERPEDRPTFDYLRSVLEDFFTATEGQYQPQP
Receptor-type tyrosine-protein kinase FLT3, sequence (P36888 whole entry): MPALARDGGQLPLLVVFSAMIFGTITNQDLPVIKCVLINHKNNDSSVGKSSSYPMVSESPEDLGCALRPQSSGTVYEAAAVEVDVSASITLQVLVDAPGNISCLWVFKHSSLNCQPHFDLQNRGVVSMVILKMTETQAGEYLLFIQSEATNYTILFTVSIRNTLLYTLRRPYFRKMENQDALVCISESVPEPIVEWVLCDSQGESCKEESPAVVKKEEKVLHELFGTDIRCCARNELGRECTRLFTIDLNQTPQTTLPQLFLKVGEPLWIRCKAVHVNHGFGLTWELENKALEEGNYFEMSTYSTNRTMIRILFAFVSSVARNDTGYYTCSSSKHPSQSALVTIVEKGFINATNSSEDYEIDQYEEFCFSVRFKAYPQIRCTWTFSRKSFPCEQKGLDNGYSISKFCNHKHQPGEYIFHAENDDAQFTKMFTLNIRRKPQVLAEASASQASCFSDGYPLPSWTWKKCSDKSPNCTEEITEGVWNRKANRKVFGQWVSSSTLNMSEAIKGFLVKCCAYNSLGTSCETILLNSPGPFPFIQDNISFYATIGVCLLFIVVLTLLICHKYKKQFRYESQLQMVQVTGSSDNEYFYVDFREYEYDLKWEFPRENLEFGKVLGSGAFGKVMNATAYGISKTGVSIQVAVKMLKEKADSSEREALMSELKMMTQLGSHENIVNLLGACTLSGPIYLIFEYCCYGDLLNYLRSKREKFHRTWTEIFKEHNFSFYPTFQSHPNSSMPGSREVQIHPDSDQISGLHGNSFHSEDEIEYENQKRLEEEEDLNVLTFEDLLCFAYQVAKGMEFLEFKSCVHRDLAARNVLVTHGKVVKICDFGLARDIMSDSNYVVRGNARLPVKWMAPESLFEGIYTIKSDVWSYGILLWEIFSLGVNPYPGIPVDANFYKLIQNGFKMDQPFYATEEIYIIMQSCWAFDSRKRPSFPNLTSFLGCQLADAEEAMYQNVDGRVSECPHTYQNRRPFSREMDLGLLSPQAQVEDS
Description for cells: Inhibition of Bcr-abl by cellular assay

Structure (SMILES): Cc1ccc(NC(=O)c2cccc(C(F)(F)F)c2)cc1N1Cc2cnc(N)nc2N(C)C1=O
- pEC50 (Ephrin type-A receptor 3): 8.70
- pEC50 [1]: 7.11
- pEC50 (Angiopoietin-1 receptor): 6.70
- pIC50 [2]: 7.89
- pEC50 [3]: 8.40
- pEC50 [4]: < 5.70
- pEC50 (Ephrin type-B receptor 4): 8.40
- pEC50 [5]: 7.10
- pEC50 [6]: < 5.70
- pEC50 [7]: 8.40
- pEC50 [8]: 8.30
- pEC50 [9]: < 5.70
- pEC50 (cells): 8.52
- pEC50 [10]: < 5.70
- pEC50 (Insulin receptor): < 5.70
- pEC50 [11]: 7.89
- pEC50 [12]: 6.63
- pEC50 [13]: 7.66
- pEC50 [14]: < 5.70
- pEC50 [15]: < 5.70
- pEC50 [16]: < 5.70
- pEC50 [17]: 8.22

Structure (SMILES): CC#CC(=O)Nc1ccc2ncnc(Nc3cccc(Br)c3)c2c1
- Activity [18]: 1.024
- Activity (IMR-90): 0.854
- Activity (SNU-5): 1.244
- Activity [19]: 1.31
- Activity (SNU1): 1.135
- Activity (MG-63): 0.97

Structure (SMILES): CCN(CC)CCCCNc1ncc2cc(-c3cc(OC)cc(OC)c3)c(NC(=O)NC(C)(C)C)nc2n1 [PD-173074]
- pIC50 [20]: < 4.30
- pEC50 [21]: 6.60
- pIC50 [22]: 4.72
